# In ChEMBL document CHEMBL1151433, “National and regional assessment of antimicrobial resistance among community-acquired respiratory tract pathogens identified in a 2005-2006 U.S. Faropenem surveillance study” (2007):
# What was measured:
# [1] = system: Streptococcus pneumoniae; test: Antibacterial activity against Streptococcus pneumoniae ATCC 49619 isolated from respiratory tract infected patients after 20 to 24 hrs by broth microdilution method; assay type: functional
# [2] = system: Streptococcus pneumoniae; test: Antibacterial activity against Streptococcus pneumoniae ATCC 49619 isolated from respiratory tract infected patients assessed as resistant isolates after 20 to 24 hrs by broth microdilution method; assay type: functional
# [3] = system: Streptococcus pneumoniae; test: Antibacterial activity against Streptococcus pneumoniae ATCC 49619 isolated from respiratory tract infected patients assessed as susceptible isolates after 20 to 24 hrs by broth microdilution method; assay type: functional
# [4] = system: Haemophilus influenzae; test: Antibacterial activity against Haemophilus influenzae […] isolated from respiratory tract infected patients after 20 to 24 hrs by broth microdilution method; assay type: functional; conditions: ATCC 49247
# [5] = system: Streptococcus pneumoniae; test: Antibacterial activity against Streptococcus pneumoniae ATCC 49619 isolated from respiratory tract infected patients within 2 years of age after 20 to 24 hrs by broth microdilution method; assay type: functional
# [6] = system: Haemophilus influenzae; test: Antibacterial activity against beta lactamase-positive Haemophilus influenzae […] isolated from respiratory tract infected patients after 20 to 24 hrs by broth microdilution method; assay type: functional; conditions: ATCC 49247
# [7] = system: Streptococcus pneumoniae; test: Antibacterial activity against Streptococcus pneumoniae ATCC 49619 isolated from respiratory tract infected male patients after 20 to 24 hrs by broth microdilution method; assay type: functional
# [8] = system: Streptococcus pneumoniae; test: Antibacterial activity against Streptococcus pneumoniae ATCC 49619 isolated from respiratory tract infected female patients after 20 to 24 hrs by broth microdilution method; assay type: functional
# [9] = system: Streptococcus pneumoniae; test: Antibacterial activity against Streptococcus pneumoniae ATCC 49619 isolated from respiratory tract infected patients more than 65 years of age after 20 to 24 hrs by broth microdilution method; assay type: functional
# [10] = system: Haemophilus influenzae; test: Antibacterial activity against Haemophilus influenzae […] isolated from respiratory tract infected patients assessed as susceptible isolates after 20 to 24 hrs by broth microdilution method; assay type: functional, ATCC 49247
# [11] = system: Streptococcus pneumoniae; test: Antibacterial activity against Streptococcus pneumoniae ATCC 49619 isolated from respiratory tract infected inpatients after 20 to 24 hrs by broth microdilution method; assay type: functional
# [12] = system: Streptococcus pneumoniae; test: Antibacterial activity against Streptococcus pneumoniae ATCC 49619 isolated from respiratory tract infected female patients assessed as resistant isolates after 20 to 24 hrs by broth microdilution method; assay type: functional
# [13] = system: Streptococcus pneumoniae; test: Antibacterial activity against penicillin-intermediate Streptococcus pneumoniae ATCC 49619 isolated from respiratory tract infected patients assessed as susceptible isolates after 20 to 24 hrs by broth microdilution method; assay type: functional
# [14] = system: Streptococcus pneumoniae; test: Antibacterial activity against Streptococcus pneumoniae ATCC 49619 isolated from respiratory tract infected patients with 6 to 14 years of age after 20 to 24 hrs by broth microdilution method; assay type: functional
# [15] = system: Streptococcus pneumoniae; test: Antibacterial activity against penicillin-resistant Streptococcus pneumoniae ATCC 49619 isolated from respiratory tract infected patients assessed as susceptible isolates after 20 to 24 hrs by broth microdilution method; assay type: functional
# [16] = system: Streptococcus pneumoniae; test: Antibacterial activity against Streptococcus pneumoniae ATCC 49619 isolated from respiratory tract infected outpatients after 20 to 24 hrs by broth microdilution method; assay type: functional
# [17] = system: Streptococcus pneumoniae; test: Antibacterial activity against penicillin-susceptible Streptococcus pneumoniae ATCC 49619 isolated from respiratory tract infected patients after 20 to 24 hrs by broth microdilution method; assay type: functional
# [18] = system: Streptococcus pneumoniae; test: Antibacterial activity against penicillin-susceptible Streptococcus pneumoniae ATCC 49619 isolated from respiratory tract infected patients assessed as resistant isolates after 20 to 24 hrs by broth microdilution method; assay type: functional
# [19] = system: Streptococcus pneumoniae; test: Antibacterial activity against Streptococcus pneumoniae ATCC 49619 isolated from respiratory tract infected patients with 6 to 14 years of age assessed as resistant isolates after 20 to 24 hrs by broth microdilution method; assay type: functional
# [20] = system: Streptococcus pneumoniae; test: Antibacterial activity against penicillin-susceptible Streptococcus pneumoniae ATCC 49619 isolated from respiratory tract infected patients assessed as susceptible isolates after 20 to 24 hrs by broth microdilution method; assay type: functional
# [21] = system: Streptococcus pneumoniae; test: Antibacterial activity against Streptococcus pneumoniae ATCC 49619 isolated from respiratory tract infected patients with 15 to 64 years of age after 20 to 24 hrs by broth microdilution method; assay type: functional
# [22] = system: Haemophilus influenzae; test: Antibacterial activity against beta lactamase-negative Haemophilus influenzae […] isolated from respiratory tract infected patients assessed as susceptible isolates after 20 to 24 hrs by broth microdilution method; assay type: functional
# [23] = system: Streptococcus pneumoniae; test: Antibacterial activity against Streptococcus pneumoniae ATCC 49619 isolated from respiratory tract infected patients more than 65 years of age assessed as resistant isolates after 20 to 24 hrs by broth microdilution method; assay type: functional
# [24] = system: Haemophilus influenzae; test: Antibacterial activity against beta lactamase-negative Haemophilus influenzae […] isolated from respiratory tract infected patients after 20 to 24 hrs by broth microdilution method; assay type: functional; conditions: ATCC 49247
# [25] = system: Streptococcus pneumoniae; test: Antibacterial activity against Streptococcus pneumoniae ATCC 49619 isolated from respiratory tract infected male patients assessed as resistant isolates after 20 to 24 hrs by broth microdilution method; assay type: functional
# [26] = system: Moraxella catarrhalis; test: Antibacterial activity against Moraxella catarrhalis isolated from respiratory tract infected patients after 20 to 24 hrs by broth microdilution method; assay type: functional
# [27] = system: Streptococcus pneumoniae; test: Antibacterial activity against Streptococcus pneumoniae ATCC 49619 isolated from respiratory tract infected inpatients assessed as resistant isolates after 20 to 24 hrs by broth microdilution method; assay type: functional
# [28] = system: Streptococcus pneumoniae; test: Antibacterial activity against Streptococcus pneumoniae ATCC 49619 isolated from respiratory tract infected outpatients assessed as resistant isolates after 20 to 24 hrs by broth microdilution method; assay type: functional
# [29] = system: Streptococcus pneumoniae; test: Antibacterial activity against penicillin-intermediate Streptococcus pneumoniae ATCC 49619 isolated from respiratory tract infected patients assessed as resistant isolates after 20 to 24 hrs by broth microdilution method; assay type: functional
# [30] = system: Streptococcus pneumoniae; test: Antibacterial activity against Streptococcus pneumoniae ATCC 49619 isolated from respiratory tract infected patients with 3 to 5 years of age assessed as resistant isolates after 20 to 24 hrs by broth microdilution method; assay type: functional
# [31] = system: Streptococcus pneumoniae; test: Antibacterial activity against Streptococcus pneumoniae ATCC 49619 isolated from respiratory tract infected patients within 2 years of age assessed as resistant isolates after 20 to 24 hrs by broth microdilution method; assay type: functional
# [32] = system: Streptococcus pneumoniae; test: Antibacterial activity against penicillin-intermediate Streptococcus pneumoniae ATCC 49619 isolated from respiratory tract infected patients after 20 to 24 hrs by broth microdilution method; assay type: functional
# [33] = system: Streptococcus pneumoniae; test: Antibacterial activity against penicillin-resistant Streptococcus pneumoniae ATCC 49619 isolated from respiratory tract infected patients after 20 to 24 hrs by broth microdilution method; assay type: functional
# [34] = system: Streptococcus pneumoniae; test: Antibacterial activity against Streptococcus pneumoniae ATCC 49619 isolated from respiratory tract infected patients with 3 to 5 years of age after 20 to 24 hrs by broth microdilution method; assay type: functional
# [35] = system: Haemophilus influenzae; test: Antibacterial activity against beta lactamase-positive Haemophilus influenzae […] isolated from respiratory tract infected patients assessed as susceptible isolates after 20 to 24 hrs by broth microdilution method; assay type: functional, ATCC 49247
# [36] = system: Streptococcus pneumoniae; test: Antibacterial activity against penicillin-resistant Streptococcus pneumoniae ATCC 49619 isolated from respiratory tract infected patients assessed as resistant isolates after 20 to 24 hrs by broth microdilution method; assay type: functional
# [37] = system: Streptococcus pneumoniae; test: Antibacterial activity against Streptococcus pneumoniae ATCC 49619 isolated from respiratory tract infected patients with 15 to 64 years of age assessed as resistant isolates after 20 to 24 hrs by broth microdilution method; assay type: functional
smiles,measurement,setting,value
CC[C@H]1OC(=O)[C@H](C)[C@@H](O[C@H]2C[C@@](C)(OC)[C@@H](O)[C@H](C)O2)[C@H](C)[C@@H](O[C@@H]2O[C@H](C)C[C@H](N(C)C)[C@H]2O)[C@](C)(O)C[C@@H](C)CN(C)[C@H](C)[C@@H](O)[C@]1(C)O [AZITHROMYCIN],MIC50,[1],≤ 0.12 mg/L
same,MIC90,[1],> 16 mg/L
same,Activity,[2],34%
same,Activity,[3],65.5%
same,MIC50,[4],1 mg/L
same,MIC90,[4],2 mg/L
same,MIC90,[5],> 16 mg/L
same,MIC50,[6],1 mg/L
same,MIC90,[6],2 mg/L
same,MIC90,[7],> 16 mg/L
same,MIC90,[8],> 16 mg/L
same,MIC90,[9],> 16 mg/L
same,Activity,[10],98.7%
same,MIC90,[11],> 16 mg/L
same,Activity,[12],31.2%
same,Activity,[13],35.5%
same,MIC90,[14],> 16 mg/L
same,Activity,[15],19.4%
same,MIC90,[16],> 16 mg/L
same,MIC50,[17],≤ 0.12 mg/L
same,MIC90,[17],4 mg/L
same,Activity,[18],11.3%
same,Activity,[19],36%
same,Activity,[20],87.9%
same,MIC90,[21],> 16 mg/L
same,Activity,[22],98.9%
same,Activity,[23],33.8%
same,MIC50,[24],1 mg/L
same,MIC90,[24],2 mg/L
same,Activity,[25],36%
same,MIC50,[26],≤ 0.12 mg/L
same,MIC90,[26],≤ 0.12 mg/L
same,Activity,[27],33%
same,Activity,[28],34.8%
same,Activity,[29],64.5%
same,Activity,[30],42.4%
same,Activity,[31],50.5%
same,MIC50,[32],4 mg/L
same,MIC90,[32],> 16 mg/L
same,MIC50,[33],32 mg/L
same,MIC90,[33],> 16 mg/L
same,MIC90,[34],> 16 mg/L
same,Activity,[35],98.1%
same,Activity,[36],80.6%
same,Activity,[37],27.6%
C=CC1=C(C(=O)O)N2C(=O)[C@@H](NC(=O)/C(=N\O)c3csc(N)n3)[C@H]2SC1 [CEFDINIR],MIC50,[1],0.12 mg/L
same,MIC90,[1],8 mg/L
same,Activity,[2],19.2%
same,Activity,[3],76.8%
same,% susceptible,[4],1%
same,MIC50,[4],0.25 mg/L
same,MIC90,[5],> 8 mg/L
same,% susceptible,[6],1%
same,MIC50,[6],0.25 mg/L
same,MIC90,[7],8 mg/L
same,MIC90,[8],8 mg/L
same,MIC90,[9],4 mg/L
same,Activity,[10],94.8%
same,MIC90,[11],8 mg/L
same,Activity,[12],18.3%
same,Activity,[13],67.5%
same,MIC90,[14],8 mg/L
same,Activity,[15],0%
same,MIC90,[16],8 mg/L
same,MIC50,[17],≤ 0.06 mg/L
same,MIC90,[17],0.12 mg/L
same,Activity,[18],0%
same,Activity,[19],19.8%
same,Activity,[20],99.9%
same,MIC90,[21],4 mg/L
same,Activity,[22],95%
same,Activity,[23],15.8%
same,% susceptible,[24],1%
same,MIC50,[24],0.25 mg/L
same,Activity,[25],19.8%
same,MIC50,[26],0.25 mg/L
same,MIC90,[26],0.5 mg/L
same,Activity,[27],18.8%
same,Activity,[28],19.6%
same,Activity,[29],14.8%
same,Activity,[30],23.2%
same,Activity,[31],33.2%
same,MIC50,[32],0.25 mg/L
same,MIC90,[32],2 mg/L
same,MIC50,[33],8 mg/L
same,MIC90,[34],> 8 mg/L
same,Activity,[35],94.4%
same,Activity,[36],100%
same,Activity,[37],15.4%
